Laboratory results from patent publication US20230086702A1, “SUBSTITUTED 2-AMINO-PYRAZOLYL-[1,2,4]TRIAZOLO[1,5A]PYRIDINE DERIVATIVES AND USE THEREOF” (The Johns Hopkins University, priority 2019, published 2023).

Experiments:
[1] = target: T1, LZK (Homo sapiens, UniProt O43283); assay: LZK biochemical assay (TR-FRET, MKK7 phosphorylation); conditions: LZK catalytic domain, MKK7 substrate, 15 μM ATP
T1 construct: 10 nM LZK, catalytic domain, Carna Biosiences in assay buffer; purchased Carna Biosciences ('Carna Biosiences' [sic])
T1 sequence (O43283 168-409 limits assumed): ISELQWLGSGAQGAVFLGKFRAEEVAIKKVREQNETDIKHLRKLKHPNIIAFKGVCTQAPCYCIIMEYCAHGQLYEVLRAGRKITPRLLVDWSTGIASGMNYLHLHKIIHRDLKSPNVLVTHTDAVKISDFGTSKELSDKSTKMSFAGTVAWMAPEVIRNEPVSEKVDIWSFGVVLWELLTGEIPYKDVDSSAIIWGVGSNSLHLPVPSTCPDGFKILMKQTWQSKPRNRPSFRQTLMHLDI
Protocol: (§1) LZK assay is a biochemical assay format designed to screen for inhibitors of LZK. Enzymatic activity of LZK is measured by monitoring phosphorylation of the physiological substrate MKK7 (MAP2K7, Dual specificity mitogen-activated protein kinase kinase 7). Phosphorylation is detected by a TR-FRET system whereby His-tagged MKK7 is labeled by a XL665-labeled anti-His antibody (FRET acceptor, emission 665 nm). LZK phosphorylates MKK7 at T275/S277 which is detected by an Eu-labeled anti-phospho-MKK7 (T275/S277) antibody (FRET donor, excitation 340 nm). Phosphorylation of MKK7 results in an increased TR-FRET signal (Ratio XL665-channel/Eu-channel) and inhibition of enzymatic activity of LZK decreases the TR-FRET signal.
All indicated concentrations final concentrations.
(§2) Detection buffer: 25 mM Tris/HCl pH 7.5, 100 mM EDTA, 100 mM NaCl, 200 mM KF, 0.01% Tween 20, 1:500 Smart Block.

[2] = target: T2, DLK (Homo sapiens, UniProt Q12852); assay: DLK biochemical assay (TR-FRET, MKK7 phosphorylation); conditions: DLK catalytic domain, MKK7 substrate, 60 μM ATP
T2 construct: 10 nM DLK, catalytic domain, Carna Biosiences; purchased Carna Biosciences ('Carna Biosiences' [sic])
T2 sequence (Q12852 125-366 limits assumed): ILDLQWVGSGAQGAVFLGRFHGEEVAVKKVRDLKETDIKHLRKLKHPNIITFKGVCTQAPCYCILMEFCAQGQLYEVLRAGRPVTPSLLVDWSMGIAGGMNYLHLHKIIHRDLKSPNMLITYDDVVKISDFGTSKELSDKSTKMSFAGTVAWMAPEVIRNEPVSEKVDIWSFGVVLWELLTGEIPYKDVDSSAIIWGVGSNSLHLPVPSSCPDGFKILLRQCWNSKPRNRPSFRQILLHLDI
Protocol: as §1, with “DLK assay” for “LZK assay”, “of DLK.” for “of LZK.”, “of DLK” for “of LZK”, “nm). DLK” for “nm). LZK”, “at T275/S277,” for “at T275/S277”
All indicated concentrations are final concentrations.
as §2

IC50 [1] [nM] | IC50 [2] [nM] | Compound
5.6 | 1.1 | CC[C@H](C)NC(=O)c1cc(-c2cnn(C(c3ccc(C(F)F)nc3)C(C)C)c2)cn2nc(N)nc12 (mixture of isomers) [Example I-67, 2-Amino-N-[(2S)-butan-2-yl]-6-(1-{1-[6-(difluoromethyl)pyridin-3-yl]-2-methylpropyl}-1H-pyrazol-4-yl)[1,2,4]triazolo[1,5-a]pyridine-8-carboxamide]
6.5 | 2.1 | CCC(c1ccc(C(F)(F)F)nc1)n1cc(-c2cc(C(=O)N[C@@H](C)CC)c3nc(N)nn3c2)cn1 (mixture of isomers) [Example I-70, 2-Amino-N-[(2S)-butan-2-yl]-6-(1-{1-[6-(trifluoromethyl)pyridin-3-yl]propyl}-1H-pyrazol-4-yl)[1,2,4]triazolo[1,5-a]pyridine-8-carboxamide]
5.8 | 1.6 | CC[C@H](C)NC(=O)c1cc(-c2cnn(C(c3ccc(C(F)(F)F)nc3)C(C)C)c2)cn2nc(N)nc12 (mixture of isomers) [Example I-73, 2-Amino-N-[(2S)-butan-2-yl]-6-(1-{2-methyl-1-[6-(trifluoromethyl)pyridin-3-yl]propyl}-1H-pyrazol-4-yl)[1,2,4]triazolo[1,5-a]pyridine-8-carboxamide]
1.1 | 0.5 | CC[C@H](C)NC(=O)c1cc(-c2cnn(C(c3ccc(C(F)(F)F)nc3)C3CCOCC3)c2)cn2nc(N)nc12 (mixture of isomers) [Example I-76, 2-Amino-N-[(2S)-butan-2-yl]-6-(1-{tetrahydro-2H-pyran-4-yl[6-(trifluoromethyl)pyridin-3-yl]methyl}-1H-pyrazol-4-yl)[1,2,4]triazolo[1,5-a]pyridine-8-carboxamide]
1.4 | 0.8 | CC[C@H](C)NC(=O)c1cc(-c2cnn(C(c3ccc(C(F)(F)F)nc3)C3CCN(C(=O)OC(C)(C)C)CC3)c2)cn2nc(N)nc12 (mixture of isomers) [Example I-79, tert-Butyl 4-{(4-{2-amino-8-[(2S)-butan-2-ylcarbamoyl][1,2,4]triazolo[1,5-a]pyridin-6-yl}-1H-pyrazol-1-yl)[6-(trifluoromethyl)pyridin-3-yl]methyl}piperidine-1-carboxylate]
38 | 4.7 | CCC(c1ccc(OCC(F)(F)F)nc1)n1cc(-c2cc(C(=O)N[C@@H](C)CC)c3nc(N)nn3c2)cn1 (mixture of isomers) [Example I-85, 2-Amino-N-[(2S)-butan-2-yl]-6-(1-{1-[6-(2,2,2-trifluoroethoxy)pyridin-3-yl]propyl}-1H-pyrazol-4-yl)[1,2,4]triazolo[1,5-a]pyridine-8-carboxamide]
120 | 7.5 | CC[C@H](C)NC(=O)c1cc(-c2cnn(C(c3ccc(OCC(F)(F)F)nc3)C(C)C)c2)cn2nc(N)nc12 (mixture of isomers) [Example I-88, 2-Amino-N-[(2S)-butan-2-yl]-6-(1-{2-methyl-1-[6-(2,2,2-trifluoroethoxy)pyridin-3-yl]propyl}-1H-pyrazol-4-yl)[1,2,4]triazolo[1,5-a]pyridine-8-carboxamide]
15 | 2.9 | CC[C@H](C)NC(=O)c1cc(-c2cnn(C(c3ccnc(C(F)(F)F)c3)C(C)C)c2)cn2nc(N)nc12 (mixture of isomers) [Example I-91, 2-Amino-N-[(2S)-butan-2-yl]-6-(1-{2-methyl-1-[2-(trifluoromethyl)pyridin-4-yl]propyl}-1H-pyrazol-4-yl)[1,2,4]triazolo[1,5-a]pyridine-8-carboxamide]
3.9 | 2 | CCC(c1ccc(C(F)F)nc1)n1cc(-c2cc(C(=O)N[C@@H](C)CC)n3nc(N)nc3c2)cn1 (mixture of isomers) [Example I-92, 2-Amino-N-[(2S)-butan-2-yl]-7-(1-{1-[6-(difluoromethyl)pyridin-3-yl]propyl}-1H-pyrazol-4-yl)[1,2,4]triazolo[1,5-a]pyridine-5-carboxamide]
4.7 | 1.5 | CC[C@H](C)NC(=O)c1cc(-c2cnn(C(c3ccc(C(F)F)nc3)C(C)C)c2)cc2nc(N)nn12 (mixture of isomers) [Example I-95, 2-Amino-N-[(2S)-butan-2-yl]-7-(1-{1-[6-(difluoromethyl)pyridin-3-yl]-2-methylpropyl}-1H-pyrazol-4-yl)[1,2,4]triazolo[1,5-a]pyridine-5-carboxamide]
7.3 | 8.6 | CC[C@H](C)NC(=O)c1cc(-c2cnn(C(c3ccc(C(F)F)nc3)C3CC3)c2)cc2nc(N)nn12 (mixture of isomers) [Example I-98, 2-Amino-N-[(2S)-butan-2-yl]-7-(1-{cyclopropyl[6-(difluoromethyl)pyridin-3-yl]methyl}-1H-pyrazol-4-yl)[1,2,4]triazolo[1,5-a]pyridine-5-carboxamide]
2.8 | 1.2 | CCC(c1ccc(C(F)(F)F)nc1)n1cc(-c2cc(C(=O)N[C@@H](C)CC)n3nc(N)nc3c2)cn1 (mixture of isomers) [Example I-101, 2-Amino-N-[(2S)-butan-2-yl]-7-(1-{1-[6-(trifluoromethyl)pyridin-3-yl]propyl}-1H-pyrazol-4-yl)[1,2,4]triazolo[1,5-a]pyridine-5-carboxamide]
2.9 | 1.3 | CC[C@H](C)NC(=O)c1cc(-c2cnn(C(c3ccc(C(F)(F)F)nc3)C(C)C)c2)cc2nc(N)nn12 (mixture of isomers) [Example I-104, 2-Amino-N-[(2S)-butan-2-yl]-7-(1-{2-methyl-1-[6-(trifluoromethyl)pyridin-3-yl]propyl}-1H-pyrazol-4-yl)[1,2,4]triazolo[1,5-a]pyridine-5-carboxamide]
3.5 | 1.7 | CC[C@H](C)NC(=O)c1cc(-c2cnn(C(c3ccc(C(F)(F)F)nc3)C3CC3)c2)cc2nc(N)nn12 (mixture of isomers) [Example I-107, 2-Amino-N-[(2S)-butan-2-yl]-7-(1-{cyclopropyl[6-(trifluoromethyl)pyridin-3-yl]methyl}-1H-pyrazol-4-yl)[1,2,4]triazolo[1,5-a]pyridine-5-carboxamide]
2.3 | 1.6 | CC[C@H](C)NC(=O)c1cc(-c2cnn(C(c3ccc(C(F)(F)F)nc3)C3CCOCC3)c2)cc2nc(N)nn12 (mixture of isomers) [Example I-110, 2-Amino-N-[(2S)-butan-2-yl]-7-(1-{tetrahydro-2H-pyran-4-yl[6-(trifluoromethyl)pyridin-3-yl]methyl}-1H-pyrazol-4-yl)[1,2,4]triazolo[1,5-a]pyridine-5-carboxamide]
12 | 5.4 | CCC(c1ccc(OCC(F)(F)F)nc1)n1cc(-c2cc(C(=O)N[C@@H](C)CC)n3nc(N)nc3c2)cn1 (mixture of isomers) [Example I-113, 2-Amino-N-[(2S)-butan-2-yl]-7-(1-{1-[6-(2,2,2-trifluoroethoxy)pyridin-3-yl]propyl}-1H-pyrazol-4-yl)[1,2,4]triazolo[1,5-a]pyridine-5-carboxamide]
68 | 8.2 | CC[C@H](C)NC(=O)c1cc(-c2cnn(C(c3ccc(OCC(F)(F)F)nc3)C(C)C)c2)cc2nc(N)nn12 (mixture of isomers) [Example I-116, 2-Amino-N-[(2S)-butan-2-yl]-7-(1-{2-methyl-1-[6-(2,2,2-trifluoroethoxy)pyridin-3-yl]propyl}-1H-pyrazol-4-yl)[1,2,4]triazolo[1,5-a]pyridine-5-carboxamide]
36 | 6.5 | CC[C@H](C)NC(=O)c1cc(-c2cnn(C(c3ccc(OCC(F)(F)F)nc3)C3CC3)c2)cc2nc(N)nn12 (mixture of isomers) [Example I-119, 2-Amino-N-[(2S)-butan-2-yl]-7-(1-{cyclopropyl[6-(2,2,2-trifluoroethoxy)pyridin-3-yl]methyl}-1H-pyrazol-4-yl)[1,2,4]triazolo[1,5-a]pyridine-5-carboxamide]
